According to patent US6943007B2, “Immuno-stimulating polysaccharide substance from Phellinus spp. strain and use thereof” (Korea Institute of Science and Technology, priority 1998, dated 2005):

How the values were obtained:
[1] = tested on: B16F10 cutaneous cancer cells; assay: Viability of mice implanted peritoneally with B16F10 cells, immunochemotherapy co-administration (60 days); format: in vivo, mouse; settings: for body weight during the test: all test groups, alone or in combination, 60-day test; for Proportion (%): untreated = 100
Source text: (§1) A homogeneous plantation test system of B16F10 cutaneous cancer cell was utilized for the measurement of the anticancer activity upon co-administration of the polysaccharide substance and adriamycin. The cutaneous cancer cells were implanted in the peritoneal cavity of mice. Adriamycin was peritoneally administrated to the mice for 12 days after tumor implantation while the polysaccharide substance was peritoneally administrated from a week before the implantation to 12 days after the implantation. For 60 days, the viability of the mice was recorded everyday. Adriamycin was used at such low amounts as not to damage the mice.
The cutaneous cancer cells were implanted in the peritoneal cavity of mice. […] For 60 days, the viability of the mice was recorded everyday.
The cutaneous cancer cells were implanted in the peritoneal cavity of mice. […] For 60 days, the viability of the mice was recorded everyday. Cisplastin was used at such low amounts as not to damage the mice.
as §1, with “5-fluoro uracil, as in the above experiments.” for “adriamycin.”, “5-fluoro uracil” for “Adriamycin”

B-cells = assay: B-cell antibody-forming cell method; format: cell-based, mice; settings: 10 μg/mL
Source text: A better understanding of the present invention may be obtained through the following examples which are set forth to illustrate, but are not to be construed as the limit of the present invention. In the following examples, splenocytes taken from B6C3F mice were used for the measurement of the immuno-stimulating activity of the polysaccharide substances isolated from Phellinus linteus Yoo and other Phellinus spp. First, the splenocytes were immunized for 2 days by treatment with the substances and lipopolysaccharide as a positive control. The antibodies formed were measured by a spectrophotometer and considered as a standard for the immuno-stimulating activity. The effect of the polysaccharide substance on the proliferation of T-cells was measured by a mixed lymphocyte response technique. To detect the proliferation of lymphocytes, nuclear DNA which was newly synthesized in lymphocytes was measured by using ^3H-thymidine. In this example, B-cells were counted by use of an antibody-forming cell method and the proliferation of T-cells was measured by a mixed lymphocyte response technique. In addition, in order to detect the effect of the polysaccharide substance on the proliferation of lymphocytes, the nuclear DNA which was newly synthesized was measured by using ^3H-thymidine.

[2] = tested on: NCl-H23 lung cancer cells; assay: Human cancer cells implanted subcutaneously in nude mice; format: in vivo
Experimental: The activity of the polysaccharide substance against human cancer was assayed using NCl-H23, a lung cancer cell line. Nude mice were subcutaneously implanted with NCl-H23 lung cancer cells. The polysaccharide substance and adriamycin were peritoneally administrated to the nude mice for 12 days after cancer cell implantation. The size of a mass of the cancer cells was measured and the cancer cells were separated and weighed on the 19th day after cancer cell implantation. Because the nude mice were devoid of T-cells, their immunological competency was generally attributed to the activity of natural killer cells or macrophage cells. Therefore, the immunological enhancement obtained when administrating the polysaccharide substance was meditated through these two type cells.

[3] = tested on: NCl-H23 human lung cancer cells; assay: Direct cytotoxicity, sulforhodamin B method; format: cell-based; settings: 2nd day after treatment
[4] = tested on: B16F10 cutaneous cancer cells; assay: Lung metastasis of B16F10 cells implanted in tail veins; format: in vivo, C57BL/6 mice; settings: 14th day
Source text: In order to test the polysaccharide substance for the prevention of cancer metastasis, B16F10 cutaneous cancer cells were implanted in the tail veins of C57BL/6 mice. On the 14th day after implantation, the lungs were isolated from the mice to investigate whether or to what extent cancer metastasis occurred. Adriamycin was peritoneally administrated to the mice for 12 days after tumor implantation while the polysaccharide substance was peritoneally administrated from a week before the implantation to 12 days after the implantation.

[5] = tested on: B16F10 mouse cutaneous cancer cells; assay: Direct cytotoxicity, sulforhodamin B method; format: cell-based; settings: 2nd day after treatment

Molecule: O=c1[nH]cc(F)c(=O)[nH]1 [5-FU, 5-fluoro uracil]
- Nos. of viable mice on the 60th day ([1]; 5-FU 1 mg/kg): 0/10
- Avg. Viability ([1]; 5-FU 1 mg/kg peritoneally for 12 days after implantation): 33.0 days
- Nos. of viable mice on the 60th day ([1]; 5-FU 3 mg/kg): 2/10
- body weight during the test [1]: did not lose body weight

Molecule: CO[C@@]12[C@H](COC(N)=O)C3=C(C(=O)C(C)=C(N)C3=O)N1C[C@@H]1N[C@@H]12 [M.C, Mitomycin C]
- Nos. of viable mice on the 60th day ([1]; M.C 0.2 mg/kg): 0/10
- Avg. Viability ([1]; M.C 0.2 mg/kg peritoneally for 12 days after implantation): 32.5 days
- Proportion (%) ([1]; M.C 0.2 mg/kg): 179.6%
- Avg. Viability ([1]; M.C 0.6 mg/kg): 38.0 days
- Nos. of viable mice on the 60th day ([1]; M.C 0.6 mg/kg): 1/10
- Proportion (%) ([1]; M.C 0.6 mg/kg): 209.9%

Molecule: lipopolysaccharide [LPS]
- B-Cell Antibody-forming (B-cells): 0.81 ± 0.23 Abs 576 nm

Molecule: N.N.[Cl][Pt][Cl] [C.P, Cisplatin]
- Nos. of viable mice on the 60th day ([1]; C.P 0.5 mg/kg): 0/10
- Avg. Viability ([1]; C.P 0.5 mg/kg peritoneally for 12 days after implantation): 33.0 days
- Avg. Viability ([1]; C.P 0.5 mg/kg peritoneally for 12 days after implantation, listed as Cisplatin): 33 days
- Nos. of viable mice on the 60th day ([1]; C.P 1.5 mg/kg): 2/10

Molecule: COc1cccc2c1C(=O)c1c(O)c3c(c(O)c1C2=O)C[C@@](O)(C(=O)CO)C[C@@H]3O[C@H]1C[C@H](N)[C@H](O)[C@H](C)O1 [Adriamycin, adriamycin]
- Cell size ([2]; 14th day, Am 1 mg/kg peritoneally for 12 days after implantation): Am^2 (1 mg/kg) 12 mm^3
- Final Cancer Weight ([2]; 19th day after implantation, Adriamycin 1 mg/kg): 95
- body weight of tested mice ([2]; nude mice, all test groups): did not gain or lose body weight
- cell quantity (untreated = 100%) ([3]; 1 μg/mL): 71%
- cell quantity (untreated = 100%) ([3]; 3 μg/mL): 39%
- cell quantity (untreated = 100%) ([3]; 10 μg/ml): 7%
- cell quantity (untreated = 100%) ([3]; 30 μg/mL): −1%
- Nos. of Spots (cancer spots on the lungs) ([4]; Adriamycin 1 mg/kg peritoneally for 12 days): 197
- Nos. of Spots (cancer spots on the lungs) ([4]; Adriamycin 3 mg/kg): 172
- cell quantity (untreated = 100%) ([5]; 1 μg/mL): 29%
- cell quantity (untreated = 100%) ([5]; 3 μg/mL): 9%
- cell quantity (untreated = 100%) ([5]; 10 μg/ml): −10%
- cell quantity (untreated = 100%) ([5]; 30 μg/mL): −10%
- Nos. of viable mice on the 60th day ([1]; Am 0.1 mg/kg): 0/10
- Nos. of viable mice on the 60th day ([1]; Am 0.3 mg/kg): 2/10
- body weight during the test [1]: did not lose body weight
